Test results taken from article PMC10279920, “Single-molecule visualization of Pif1 helicase translocation on single-stranded DNA” (The Journal of Biological Chemistry, 2023).
Changes are numbered by the printed parent chain.

How the values were obtained:
Test in all cases: ATP hydrolysis, [γ-32P]-ATP TLC, Michaelis-Menten fit
Type in all cases: biochemical
Conditions in all cases: M13 ssDNA 1.5 μM nt, 10 nM Pif1, 5 mM MgCl2, 60 mM KCl, pH 7.5, 30 °C, no RPA; labelled compound as tracer
[1] = target: T1, GFP-Pif1 (Saccharomyces cerevisiae, UniProt P07271)
T1 construct: N-terminal superfolder GFP fusion of nuclear isoform residues 40-859, pRSF-Duet-1, E. coli Rosetta2(DE3), Ni-NTA purified
T1 sequence (P07271 40-859): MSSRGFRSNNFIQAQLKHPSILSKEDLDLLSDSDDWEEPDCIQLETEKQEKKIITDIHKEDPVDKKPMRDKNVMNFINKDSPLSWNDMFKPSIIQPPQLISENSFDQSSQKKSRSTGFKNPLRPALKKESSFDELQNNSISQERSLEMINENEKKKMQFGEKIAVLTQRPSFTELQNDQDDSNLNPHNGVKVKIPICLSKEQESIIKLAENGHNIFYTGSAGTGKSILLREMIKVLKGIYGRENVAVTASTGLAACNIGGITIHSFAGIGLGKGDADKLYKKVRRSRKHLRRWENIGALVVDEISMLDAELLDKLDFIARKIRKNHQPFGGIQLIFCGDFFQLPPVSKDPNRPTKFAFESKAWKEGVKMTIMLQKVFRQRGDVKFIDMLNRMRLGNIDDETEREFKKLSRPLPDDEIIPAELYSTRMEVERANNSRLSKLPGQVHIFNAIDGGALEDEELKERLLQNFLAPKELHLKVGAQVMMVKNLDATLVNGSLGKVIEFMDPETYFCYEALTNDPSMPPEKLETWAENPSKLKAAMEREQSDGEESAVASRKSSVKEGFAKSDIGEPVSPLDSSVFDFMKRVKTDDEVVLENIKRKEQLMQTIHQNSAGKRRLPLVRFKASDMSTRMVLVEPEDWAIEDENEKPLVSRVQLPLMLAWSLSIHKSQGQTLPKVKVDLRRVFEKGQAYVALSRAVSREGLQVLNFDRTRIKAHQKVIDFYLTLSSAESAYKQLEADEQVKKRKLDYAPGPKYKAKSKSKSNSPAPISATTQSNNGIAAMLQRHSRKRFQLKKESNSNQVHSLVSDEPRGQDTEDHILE
Method: ATP hydrolysis, [γ-32P]-ATP TLC, Michaelis-Menten fit on GFP-Pif1 | Values for Vmax, Km, and kcat were determined and compared to WT Pif1

[2] = target: T2, GFP-Pif1 (Saccharomyces cerevisiae, UniProt P07271, G291P)
T2 construct: N-terminal superfolder GFP fusion of nuclear isoform residues 40-859, pRSF-Duet-1, E. coli Rosetta2(DE3), Ni-NTA purified
T2 sequence (P07271 40-859 G291P): T1 sequence (P07271 40-859) with G252P

[3] = target: T3, GFP-Pif1 (Saccharomyces cerevisiae, UniProt P07271, K387A)
T3 construct: N-terminal superfolder GFP fusion of nuclear isoform residues 40-859, pRSF-Duet-1, E. coli Rosetta2(DE3), Ni-NTA purified
T3 sequence (P07271 40-859 K387A): T1 sequence (P07271 40-859) with K348A

Km [1]: 470 ± 620 µM
Km [2]: 760 ± 290 µM
Km [3]: 540 ± 290 µM
Structure (SMILES): Nc1ncnc2c1ncn2[C@@H]1O[C@H](COP(=O)(O)OP(=O)(O)OP(=O)(O)O)[C@@H](O)[C@H]1O [ATP]
